# Measurements taken from patent publication US20240335395A1, “COMPOSITIONS AND METHODS FOR PREVENTING AND/OR TREATING DISEASE ASSOCIATED WITH IL-23 EXPRESSION” (ALLSPIM, priority 2021, published 2024).
# Key:
# Type in all cases: in vivo, mouse
# [1] = tested on: collagen induced arthritis (CIA) in DBA/1 mice; experiment: Collagen induced arthritis (CIA) in DBA/1 mice, clinical score; conditions: for decrease of mean clinical score compared with control group: as from day 5 post-treatment
# Excerpt: Induction of collagen induced arthritis (CIA) in DBA/1 mice treated with oral 2,4-D. Forty DBA/1 mice (8-12 weeks of age; 20 males and 20 females) were obtained from the Center for Experimental Animals in Beijing, China. The CIA model was established according to the standard Hooke Protocol (accessible at https://hookelabs.com/protocols/cialnduction_DBA1.html). Complete Freund's adjuvant (CFA) and incomplete Freund's adjuvant (IFA) were purchased from Hooke Laboratories. 35 days after immunization, the 40 immunized mice were distributed randomly into 4 groups (10 controls, 10 treated with 0.2 mg daily oral 2,4-D, 10 treated with 1 mg daily oral 2,4-D for 15 days). All animals were followed for an additional 15 days post-treatment.
# CIA scoring. CIA is scored on a scale of 0 to 16 (0 to 4 for each paw, adding the scores for all 4 paws), using the following criteria:
# Statistical analysis. Data are presented as the mean±SEM for the in vivo animal study. Statistical analysis was performed using Student's t-test (paired 2-sample testing).
# [2] = tested on: MSU-induced knee joint edema; experiment: MSU-induced knee joint edema in mice; conditions: 20 h
# Experimental: (§1) 2,4-D, isolated and purified from Chloranthus spicatus (purity≥98%), was purchased from BOC Science (Shirley, NY). Colchicine (CLC) (purity≥96%) and dexamethasone (DEX) (purity≥98%) were purchased from Sigma. Mice (six per group) were treated with 2,4-D (100 mg/kg or 20 mg/kg, i.p.), CLC (1 mg/kg or 0.2 mg/kg, i.p.), DEX (0.5 mg/kg or 0.1 mg/kg, i.p.), or vehicle (20% polyoxyethylenesorbitan monooleate (Tween 80) plus PBS) 30 min before intra-articular stimulus with MSU (100 μg/10 μL, i.a.). Six mice with intra-articular injection with PBS alone served as a negative control.
# Preparation of monosodium urate crystal (MSU). MSU crystals were prepared as described previously (Ruiz-Miyazawa et al., 2017). Briefly, 800 mg of monosodium urate was dissolved in 155 ml of boiling milli-Q water containing 2N NaOH. After pH adjustment to 8.9, the solution was cooled gradually by stirring at room temperature and crystallized overnight at 4° C. Crystals were collected, and centrifuged at 3,000×g for 2 min at 4° C. The crystals were evaporated and sterilized by heating at 180° C. for 2 h and stored in a sterile environment until use. The load of endotoxin present in the MSU crystals was determined using a ToxinSensor^TM Single Test Kit (GenScript).
# (§2) Induction of MSU-Induced Knee Joint Inflammation. Male ICR (CD-1) mice (35-45 g, 10-12 weeks) were purchased from VitalRiver Inc (Beijing, China) and were kept in an animal care facility under controlled temperature of 21±1° C., humidity, and on a light/dark cycle, with ad libitum access to water and standard laboratory chow diet. Animal care and handling procedures were approved by the Animal Ethics Committee of GZUCM (Guangzhou University of Chinese Medicine). All efforts were made to minimize animal suffering and to reduce the number of animals used. Joint inflammation was induced by the intra-articular (i.a.) administration of MSU (200 μg/20 μl) into the right and left knee joints of mice under inhaled 3% isoflurane anesthesia. Control animals received an injection (i.a.) of sterile PBS (20 μL).
# Evaluation of Knee Joint Edema. Knee joint edema was determined with a caliper (Mitutoyo) before (zero time), and after the intra-articular injection with MSU at the times indicated. Knee joint edema was determined for each mouse by the difference between the time points indicated on figures and the zero time (Ruiz-Miyazawa et al, 2017). The edema value is represented as Amm/joint.
# Statistical Analysis. Data were analyzed using GraphPad Prism statistical software (GraphPad Software, Inc., United States-500.288, version 5.0). Results are presented as means±SEM or SD of measurements made on 6 mice per group, with statistical significance determined by two-way ANOVA, comparing each group to the control (“Model”) group. For in vitro experiments, microassays were performed in quadruplicate. p<0.05 was considered significant (*p<0.05, **p<0.01, ***p<0.001).
# [3] = tested on: MSU-induced leukocyte recruitment; experiment: MSU-induced leukocyte recruitment to the synovial cavity of knee joint; conditions: 20 h; 2,4-D 100 mg/kg, CLC 1 mg/kg, DEX 0.5 mg/kg
# Experimental: as §1, §2
# Histopathological Analysis. Knee joint was collected 20 h after MSU injection, fixed with 10% paraformaldehyde in PBS, and then decalcified for 10 days with EDTA and embedded in paraffin for histological analysis. […] Results are expressed as leukocytes infiltrate (cell/field) counted at the inflammatory foci within synovial cavity as indicative of synovitis. […]
# Statistical Analysis. Data were analyzed using GraphPad Prism statistical software (GraphPad Software, Inc., United States-500.288, version 5.0). Results are presented as means±SEM or SD of measurements made on 6 mice per group, with statistical significance determined by two-way ANOVA, comparing each group to the control (“Model”) group. […]
# IL-1ß = experiment: MSU-induced IL-1ß in knee joint tissue (multiplex microassay); conditions: 2,4-D 100 mg/kg, CLC 1 mg/kg, DEX 0.5 mg/kg
# Experimental: Mice (six per group) were treated with 2,4-D (100 mg/kg or 20 mg/kg, i.p.), CLC (1 mg/kg or 0.2 mg/kg, i.p.), DEX (0.5 mg/kg or 0.1 mg/kg, i.p.), or vehicle (20% polyoxyethylenesorbitan monooleate (Tween 80) plus PBS) 30 min before intra-articular stimulus with MSU (100 μg/10 μL, i.a.). Six mice with intra-articular injection with PBS alone served as a negative control.
# as §2
# Cytokine Measurement. Mice were anesthetized and sacrificed. Knee joints were collected and frozen in liquid nitrogen. Samples were then homogenized in 500 μl of buffer containing protease inhibitors, centrifuged (3600 rpm, 4° C., 15 min) and supernatants were used to determine Th1/Th2/Th17 cytokine levels using a multiplex microassay (Qantibody® mouse TH17 Array 1 kit, Cat. No.: QAM-TH17-1; RayBiotech, Norcross, GA). Results were expressed as picograms (pg) of cytokine/mg of tissue.
# Statistical Analysis. […] For in vitro experiments, microassays were performed in quadruplicate. p<0.05 was considered significant (*p<0.05, **p<0.01, ***p<0.001).
structure (smiles),measurement,setting,value
"COc1cc(O)c(OC)c(O)c1C(=O)/C=C/c1ccccc1 [2,4-D, 2′,4′-dihydroxy-3′,6′-dimethoxychalcone]",decrease of mean clinical score compared with control group,[1]; high dose 1 mg per day oral,2- to 7 fold
same,suppression of CIA after withdrawal of treatment,"[1]; high dose, 15 days after withdrawal",maintained
same,decrease of mean clinical score compared with control group,[1]; low dose 0.2 mg per day oral,2- to 3 fold
same,reduction of MSU-induced knee joint edema,"[2]; high dose i.p.: 2,4-D 100 mg/kg, CLC 1 mg/kg, DEX 0.5 mg/kg",68.4%
same,reduction of MSU-induced knee joint edema,"[2]; low dose i.p.: 2,4-D 20 mg/kg, DEX 0.1 mg/kg",45.3%
same,reduction of MSU-induced leukocyte recruitment,[3],4.5 fold
same,decrease of IL-1ß in knee joint tissue,IL-1ß,5.3 fold
